Literature values as cited in US20070128633A1, “Cell-free protein expression systems and methods of use thereof” (ChemBridge Research Laboratories, Inc., priority 2005, published 2007).

Assays:
[1] = target: KIT active site mutation D816V (Homo sapiens, UniProt P10721, D816V); details: sporadic adult human mastocytosis, Ma et al. (2002)
[2] = tested on: KIT variants containing 2 out of these 6 mutations; details: KIT variants with 2 of 6 catalytic domain point mutations found in seminomas; Kemmer et al. (2004)
[3] = target: streptavidin (Streptomyces avidinii, UniProt P22629); details: tag fused to the C- or N-termini of a recombinant protein; Skerra and Schmidt (2000)
Chain of streptavidin (P22629 25-183, species assumed): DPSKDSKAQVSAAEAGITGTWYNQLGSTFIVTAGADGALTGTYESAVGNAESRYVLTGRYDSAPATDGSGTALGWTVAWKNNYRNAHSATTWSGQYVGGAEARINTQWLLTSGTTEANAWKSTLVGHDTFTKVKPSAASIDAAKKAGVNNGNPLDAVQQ

Chain of KIT active site mutation D816V (P10721 26-976 D816V): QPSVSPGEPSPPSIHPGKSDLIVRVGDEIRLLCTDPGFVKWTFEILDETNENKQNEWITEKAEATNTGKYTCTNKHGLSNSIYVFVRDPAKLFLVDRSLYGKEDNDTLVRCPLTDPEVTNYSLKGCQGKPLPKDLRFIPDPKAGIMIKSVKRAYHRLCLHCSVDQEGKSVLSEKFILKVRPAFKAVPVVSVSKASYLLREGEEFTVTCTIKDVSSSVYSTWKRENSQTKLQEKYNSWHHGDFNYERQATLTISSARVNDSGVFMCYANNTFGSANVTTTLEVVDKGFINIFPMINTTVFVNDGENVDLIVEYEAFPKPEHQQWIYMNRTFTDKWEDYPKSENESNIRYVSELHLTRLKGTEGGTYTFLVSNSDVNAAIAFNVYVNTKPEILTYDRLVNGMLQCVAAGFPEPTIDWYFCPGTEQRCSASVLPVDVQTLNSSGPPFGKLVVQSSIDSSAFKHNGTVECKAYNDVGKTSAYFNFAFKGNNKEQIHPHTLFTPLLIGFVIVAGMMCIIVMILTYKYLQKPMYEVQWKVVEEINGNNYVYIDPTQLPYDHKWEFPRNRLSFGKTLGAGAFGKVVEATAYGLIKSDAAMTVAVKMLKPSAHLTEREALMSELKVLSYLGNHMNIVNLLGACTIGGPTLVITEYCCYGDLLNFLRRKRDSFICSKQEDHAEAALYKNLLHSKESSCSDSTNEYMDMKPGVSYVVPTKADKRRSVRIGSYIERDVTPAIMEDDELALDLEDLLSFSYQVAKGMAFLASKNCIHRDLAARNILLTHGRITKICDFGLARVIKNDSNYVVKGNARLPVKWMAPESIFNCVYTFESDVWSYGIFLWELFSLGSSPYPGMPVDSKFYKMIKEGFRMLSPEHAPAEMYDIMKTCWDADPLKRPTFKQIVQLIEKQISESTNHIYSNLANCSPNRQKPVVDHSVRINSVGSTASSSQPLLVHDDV

Cc1ccc(NC(=O)c2ccc(CN3CCN(C)CC3)cc2)cc1Nc1nccc(-c2cccnc2)n1 [imatinib]
response to imatinib treatment [1]: resistance | inhibition of KIT variants [2]: not inhibited

WSHPQFEK [Strep-Tag II]
Kd [3]: 18 µM
